From US20230265151A1, “GIP/GLP1 CO-AGONIST COMPOUNDS” (priority 2020, published 2023)
Where two headings read alike, the source gives them in different places.

Experiments:
Assay type in all cases: cell-based
[1] = target: hGLP-1R (Homo sapiens, UniProt P43220); assay: Functional cAMP formation (HTRF) in HEK-293 clonal cells expressing hGLP-1R, 0.1% bovine casein, without or with 1.0% human serum albumin; set-up: expressed in transfected cells; settings: for EC50: geometric mean, read-out: hGLP-1R EC50, nM (SEM, n); for Emax: read-out: hGLP-1R Emax, % ± SEM
hGLP-1R, sequence (P43220 24-463): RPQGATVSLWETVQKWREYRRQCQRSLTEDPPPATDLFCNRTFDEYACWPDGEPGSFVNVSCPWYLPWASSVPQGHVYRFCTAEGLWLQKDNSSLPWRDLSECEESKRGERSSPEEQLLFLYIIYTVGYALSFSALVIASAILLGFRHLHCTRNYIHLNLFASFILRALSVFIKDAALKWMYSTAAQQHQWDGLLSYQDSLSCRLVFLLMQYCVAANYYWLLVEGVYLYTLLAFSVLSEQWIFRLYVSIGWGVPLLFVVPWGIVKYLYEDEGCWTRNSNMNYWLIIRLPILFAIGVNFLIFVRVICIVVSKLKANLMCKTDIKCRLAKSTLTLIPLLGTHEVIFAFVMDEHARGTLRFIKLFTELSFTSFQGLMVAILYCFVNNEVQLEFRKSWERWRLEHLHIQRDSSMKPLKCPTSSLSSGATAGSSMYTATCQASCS
Method in brief: (§1)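 Cells were stimulated with peptide for 30 min at 37° C, then intracellular cAMP was measured by competitive HTRF (665/620 nm ratio) and converted to nM using a cAMP standard curve. Relative EC50 and Emax came from four-parameter logistic fits of percent maximal response against peptide concentration.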

[2] = target: T1, hGIPR (Homo sapiens, UniProt P48546); assay: Functional cAMP formation (HTRF) in HEK-293 clonal cells expressing hGIPR, 0.1% bovine casein, without or with 1.0% human serum albumin; settings: for EC50: geometric mean, read-out: hGIPR EC50, nM (SEM, n); for Emax: read-out: hGIPR Emax, % ± SEM
T1 construct: expressed in transfected cells
T1 sequence (P48546 22-466): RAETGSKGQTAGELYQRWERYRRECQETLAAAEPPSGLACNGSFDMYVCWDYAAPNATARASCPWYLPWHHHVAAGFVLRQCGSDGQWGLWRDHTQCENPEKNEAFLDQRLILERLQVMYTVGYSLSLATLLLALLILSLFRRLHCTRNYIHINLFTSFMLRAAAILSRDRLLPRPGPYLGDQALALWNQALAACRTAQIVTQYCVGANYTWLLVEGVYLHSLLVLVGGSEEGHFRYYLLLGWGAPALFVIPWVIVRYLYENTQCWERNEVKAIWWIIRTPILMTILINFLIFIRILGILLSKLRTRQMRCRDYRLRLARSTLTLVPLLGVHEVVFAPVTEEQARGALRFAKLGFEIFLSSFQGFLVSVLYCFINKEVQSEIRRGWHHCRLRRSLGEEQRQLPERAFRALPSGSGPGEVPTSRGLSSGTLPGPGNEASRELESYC
Method in brief: as §1

[3] = target: T2, hGCGR (Homo sapiens, UniProt P47871); assay: Functional cAMP formation (HTRF) in HEK-293 clonal cells expressing hGCGR, 0.1% bovine casein, without or with 1.0% human serum albumin; settings: geometric mean, read-out: hGCGR EC50, nM (SEM, n)
T2 construct: expressed in transfected cells
T2 sequence (P47871 26-477): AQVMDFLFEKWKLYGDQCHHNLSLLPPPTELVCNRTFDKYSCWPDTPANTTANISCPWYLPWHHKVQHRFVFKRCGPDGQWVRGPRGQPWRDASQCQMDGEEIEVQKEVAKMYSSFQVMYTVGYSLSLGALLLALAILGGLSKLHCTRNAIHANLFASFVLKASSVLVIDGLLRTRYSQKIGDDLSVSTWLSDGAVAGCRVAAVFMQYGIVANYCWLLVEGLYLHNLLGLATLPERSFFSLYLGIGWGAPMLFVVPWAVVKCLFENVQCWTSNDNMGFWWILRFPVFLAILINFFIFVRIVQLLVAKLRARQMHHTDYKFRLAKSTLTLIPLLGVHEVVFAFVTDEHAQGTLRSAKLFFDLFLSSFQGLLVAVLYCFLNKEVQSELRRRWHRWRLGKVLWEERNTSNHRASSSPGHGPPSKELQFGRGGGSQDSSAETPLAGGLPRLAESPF
Method in brief: as §1

[4] = 0.1% bovine casein and 1.0% human serum albumin, 37° C.
[5] = cAMP, incubated at 37° C., 0.1% bovine casein (no human serum albumin)
[6] = HEK293, 0.1% bovine casein and 1.0% human serum albumin, 37° C., percent of maximal response to GIP(1-42)NH2
[7] = HEK293, percent of maximal response to GIP(1-42)NH2, 37° C., 0.1% bovine casein, arithmetic mean
[8] = HEK293, percent of maximal response to GLP-1(7-36)NH2, 37° C., 0.1% bovine casein, arithmetic mean

Row | SMILES | EC50 [1, 4] [nM] | Emax ([1]; HEK293, 0.1% bovine casein and 1.0% human serum albumin, 37° C., percent of maximal response to GLP-1(7-36)NH2) [%] | EC50 [1, 5] [nM] | EC50 [2, 4] [nM] | Emax [2, 6] [%] | Emax [2, 7] [%] | EC50 [3, 4] [nM] | EC50 [3, 5] [nM] | Emax [1, 8] [%] | EC50 [2, 5] [nM]
1 | CCCCCCCCCCCC(=O)N[C@@H](CCC(=O)NCCOCCOCC(=O)NCCOCCOCC(=O)NCCCC[C@H](NC(=O)CNC(=O)CNC(=O)[C@H](CCC(=O)O)NC(=O)[C@@H](NC(=O)[C@H](CC(C)C)NC(=O)[C@](C)(Cc1ccc(O)cc1)NC(=O)[C@@H](CCC(=O)O)NC(=O)[C@@H](NC(=O)[C@H](Cc1ccccc1)NC(=O)[C@H](CCC(=O)O)NC(=O)C(C)(C)NC(=O)[C@H](CCC(N)=O)NC(=O)[C@H](C)NC(=O)[C@H](CCCCNC(=O)COCCOCCNC(=O)COCCOCCNC(=O)CC[C@H](NC(=O)CCCCCCCCCCC)C(=O)O)NC(=O)[C@H](CCCN)NC(=O)[C@H](CC(=O)O)NC(=O)[C@H](CC(C)C)NC(=O)[C@](C)(CC(C)C)NC(=O)[C@@H](NC(=O)[C@H](CO)NC(=O)[C@H](Cc1ccncc1)NC(=O)[C@H](CC(=O)O)NC(=O)[C@H](CO)NC(=O)[C@@H](NC(=O)[C@](C)(Cc1ccccc1)NC(=O)[C@@H](NC(=O)CNC(=O)[C@H](CCC(=O)O)NC(=O)C(C)(C)NC(=O)[C@@H](N)Cc1ccc(O)cc1)[C@@H](C)O)[C@@H](C)O)[C@@H](C)CC)[C@@H](C)CC)[C@@H](C)CC)C(=O)N[C@@H](CO)C(=O)N[C@@H](CO)C(=O)NCC(=O)N[C@@H](C)C(=O)N1CCC[C@H]1C(=O)N1CCC[C@H]1C(=O)N1CCC[C@H]1C(=O)N[C@@H](CO)C(N)=O)C(=O)O [Example 172] | 7.7 | 112 ± 10.3 | 0.141 | 0.385 | 80.1 ± 2.06 | 89.9 ± 1.05 | > 9950 | > 9950 |  | 
2 | CCCCCCCCCCCC(=O)N[C@@H](CCC(=O)NCCOCCOCC(=O)NCCOCCOCC(=O)NCCCC[C@H](NC(=O)CNC(=O)CNC(=O)[C@H](CCC(=O)O)NC(=O)[C@@H](NC(=O)[C@H](CC(C)C)NC(=O)[C@](C)(Cc1ccc(O)cc1)NC(=O)[C@@H](CCC(=O)O)NC(=O)[C@@H](NC(=O)[C@](C)(Cc1ccccc1)NC(=O)[C@H](CCC(=O)O)NC(=O)C(C)(C)NC(=O)[C@H](CCC(N)=O)NC(=O)[C@H](C)NC(=O)[C@H](CCCCNC(=O)COCCOCCNC(=O)COCCOCCNC(=O)CC[C@H](NC(=O)CCCCCCCCCCC)C(=O)O)NC(=O)[C@H](CCCN)NC(=O)[C@H](CC(=O)O)NC(=O)[C@H](CC(C)C)NC(=O)[C@](C)(CC(C)C)NC(=O)[C@@H](NC(=O)[C@H](CO)NC(=O)[C@H](Cc1ccncc1)NC(=O)[C@H](CC(=O)O)NC(=O)[C@H](CO)NC(=O)[C@@H](NC(=O)[C@](C)(Cc1ccccc1)NC(=O)[C@@H](NC(=O)CNC(=O)[C@H](CCC(=O)O)NC(=O)C(C)(C)NC(=O)[C@@H](N)Cc1ccc(O)cc1)[C@@H](C)O)[C@@H](C)O)[C@@H](C)CC)[C@@H](C)CC)[C@@H](C)CC)C(=O)N[C@@H](CO)C(=O)N[C@@H](CO)C(=O)NCC(=O)N[C@@H](C)C(=O)N1CCC[C@H]1C(=O)N1CCC[C@H]1C(=O)N1CCC[C@H]1C(=O)N[C@@H](CO)C(N)=O)C(=O)O [Example 173] | 29.7 |  | 0.343 | 1.24 | 92.9 ± 6.91 | 87.8 ± 6.22 | > 9950 | > 9950 | 89.9 ± 2.72 | 0.0155
3 | CCCCCCCCCCCC(=O)N[C@@H](CCC(=O)NCCOCCOCC(=O)NCCOCCOCC(=O)NCCCC[C@H](NC(=O)CNC(=O)CNC(=O)[C@H](CCC(=O)O)NC(=O)[C@@H](NC(=O)[C@H](CC(C)C)NC(=O)[C@](C)(Cc1ccccc1)NC(=O)[C@@H](CCC(=O)O)NC(=O)[C@@H](NC(=O)[C@](C)(Cc1ccccc1)NC(=O)[C@H](CCC(=O)O)NC(=O)C(C)(C)NC(=O)[C@H](CCC(N)=O)NC(=O)[C@H](C)NC(=O)[C@H](CCCCNC(=O)COCCOCCNC(=O)COCCOCCNC(=O)CC[C@H](NC(=O)CCCCCCCCCCC)C(=O)O)NC(=O)[C@H](CCCN)NC(=O)[C@H](CC(=O)O)NC(=O)[C@H](CC(C)C)NC(=O)[C@](C)(CC(C)C)NC(=O)[C@@H](NC(=O)[C@H](CO)NC(=O)[C@H](Cc1ccncc1)NC(=O)[C@H](CC(=O)O)NC(=O)[C@H](CO)NC(=O)[C@@H](NC(=O)[C@](C)(Cc1ccccc1)NC(=O)[C@@H](NC(=O)CNC(=O)[C@H](CCC(=O)O)NC(=O)C(C)(C)NC(=O)[C@@H](N)Cc1ccc(O)cc1)[C@@H](C)O)[C@@H](C)O)[C@@H](C)CC)[C@@H](C)CC)[C@@H](C)CC)C(=O)N[C@@H](CO)C(=O)N[C@@H](CO)C(=O)NCC(=O)N[C@@H](C)C(=O)N1CCC[C@H]1C(=O)N1CCC[C@H]1C(=O)N1CCC[C@H]1C(=O)N[C@@H](CO)C(N)=O)C(=O)O [Example 174] |  |  |  |  |  | 92.2 |  | > 9950 | 98.2 | 
4 | CCCCCCCCCCCC(=O)N[C@@H](CCC(=O)NCCOCCOCC(=O)NCCOCCOCC(=O)NCCCC[C@H](NC(=O)CNC(=O)CNC(=O)[C@H](CCC(=O)O)NC(=O)[C@@H](NC(=O)[C@H](CC(C)C)NC(=O)[C@](C)(Cc1ccc(O)cc1)NC(=O)[C@@H](CCC(=O)O)NC(=O)[C@@H](NC(=O)[C@H](Cc1ccccc1)NC(=O)[C@H](CCC(=O)O)NC(=O)C(C)(C)NC(=O)[C@H](CCC(N)=O)NC(=O)[C@H](C)NC(=O)[C@H](CCCCNC(=O)COCCOCCNC(=O)COCCOCCNC(=O)CC[C@H](NC(=O)CCCCCCCCCCC)C(=O)O)NC(=O)[C@H](CCCN)NC(=O)[C@H](CC(=O)O)NC(=O)[C@H](CC(C)C)NC(=O)[C@](C)(CC(C)C)NC(=O)[C@@H](NC(=O)C(C)(C)NC(=O)[C@@H](NC(=O)[C@H](CC(=O)O)NC(=O)[C@H](CO)NC(=O)[C@@H](NC(=O)[C@](C)(Cc1ccccc1F)NC(=O)[C@@H](NC(=O)CNC(=O)[C@H](CCC(=O)O)NC(=O)C(C)(C)NC(=O)[C@@H](N)Cc1ccc(O)cc1)[C@@H](C)O)[C@@H](C)O)C(C)C)[C@@H](C)CC)[C@@H](C)CC)[C@@H](C)CC)C(=O)N[C@@H](CO)C(=O)N[C@@H](CO)C(=O)NCC(=O)N[C@@H](C)C(=O)N1CCC[C@H]1C(=O)N1CCC[C@H]1C(=O)N1CCC[C@H]1C(=O)N[C@@H](CO)C(N)=O)C(=O)O [Example 175] |  |  | 0.227 |  |  | 100 |  | > 9950 | 91.1 | 
5 | CCCCCCCCCCCC(=O)N[C@@H](CCC(=O)NCCOCCOCC(=O)NCCOCCOCC(=O)NCCCC[C@H](NC(=O)CNC(=O)CNC(=O)[C@H](CCC(=O)O)NC(=O)[C@@H](NC(=O)[C@H](CC(C)C)NC(=O)[C@](C)(Cc1ccc(O)cc1)NC(=O)[C@@H](CCC(=O)O)NC(=O)[C@@H](NC(=O)[C@H](Cc1ccccc1)NC(=O)[C@H](CCC(=O)O)NC(=O)C(C)(C)NC(=O)[C@H](CCC(N)=O)NC(=O)[C@H](C)NC(=O)[C@H](CCCCNC(=O)COCCOCCNC(=O)COCCOCCNC(=O)CC[C@H](NC(=O)CCCCCCCCCCC)C(=O)O)NC(=O)[C@H](CCCN)NC(=O)[C@H](CC(=O)O)NC(=O)[C@H](CC(C)C)NC(=O)[C@](C)(CC(C)C)NC(=O)[C@@H](NC(=O)C(C)(C)NC(=O)[C@@H](NC(=O)[C@H](CC(=O)O)NC(=O)[C@H](CO)NC(=O)[C@@H](NC(=O)[C@](C)(Cc1ccccc1)NC(=O)[C@@H](NC(=O)CNC(=O)[C@H](CCC(=O)O)NC(=O)C(C)(C)NC(=O)[C@@H](N)Cc1ccc(O)cc1)[C@@H](C)O)[C@@H](C)O)C(C)C)[C@@H](C)CC)[C@@H](C)CC)[C@@H](C)CC)C(=O)N[C@@H](CO)C(=O)N[C@@H](CO)C(=O)NCC(=O)N[C@@H](C)C(=O)N1CCC[C@H]1C(=O)N1CCC[C@H]1C(=O)N1CCC[C@H]1C(=O)N[C@@H](CO)C(N)=O)C(=O)O [Example 176] |  |  |  |  |  | 89.3 |  | > 9950 | 98.9 | 0.0485
